Experimental data as given in patent US11135186B2, “Regulators of the endoplasmic reticulum proteostasis network” (The Scripps Research Institute, priority 2015, dated 2021).

Legend:
[1] = tested on: ERSE-FLuc reporter (ATF6 arm of the UPR); test: ERSE-FLuc reporter, 1536-well confirmation screen in HEK293T-Rex cells; format: cell-based; details: % Tg (500 nM) activation, triplicate confirmation screen at 6.8 μM, 18 h
Source text: We employed a transcriptional reporter that quantifies activation of the ATF6 arm of the UPR in HEK293T-Rex cells. This reporter contains a fragment of the UPR-inducible BiP promoter, including three ER stress-responsive elements (ERSEs), driving expression of firefly luciferase (ERSE-FLuc; FIG. 1a)^34. We previously employed this reporter for a small-scale screen using the 1280 member compound Library of Pharmacologic Active Compounds (LoPAC) to find small molecules that activate the UPR^8. […] Optimization and miniaturization of this assay to 1536-well format was performed at the Scripps Research Institute Molecule Screening Center (SRIMSC).
HEK293T-Rex cells incorporating either the ERSE-FLuc or XBP1s-RLuc reporters were collected by trypsinization and resuspended at a density of 500,000 cells per mL. The assay was started by dispensing 5 μL of cell suspension into each well of white, solid-bottom 1536-well plates using a flying reagent dispenser (FRD) and placed into an online incubator 3 h. Cells were then treated with 34 nL/well of either test compounds to give final concentrations of 6.8 μM, DMSO (Low control, final concentration 0.68%, 0% activation) or […] of Delta-7 thapsigargin (High control, final concentration 500 nM, 100% activation). Plates were incubated for 18 h at 37° C., removed from the incubator and equilibrated to room temperature for 10 min. Luciferase activity was detected by addition of 5 μL of ONE-Glo reagent (Promega) to each well. After a 10 min incubation time, light emission was measured with the ViewLux reader (PerkinElmer). The percent activation of each test compound was calculated as follows: % Activation=100*(Test Compound−Median Low Control)/(Median High Control ˜Median Low Control).

HepG2 cells = test: HepG2 viability (CellTiter-Glo); format: cell-based
Method: HepG2 cells were plated at 5,000 cells/well in a translucent, flat-bottomed 96 well plate, and treated for 48 hr with vehicle, 10 μM Tg or 10 μM ER proteostasis regulator. ALMC-2 or KAS-6/1 cells were plated at 33,000 cells/well in 96-well plates then treated with proteostasis regulators for 16 h as described. Cell metabolic activity was measured using the CellTiter-Glo assay (Promega), which reports on intracellular ATP concentration. CellTiter-Glo reagent was added to cell culture media at a 1:1 ratio and incubated for 2 minutes on an orbital shaker to induce cell lysis. The plate was then incubated at room temperature for 10 minutes to stabilize the luminescent signal and read on a Tecan F200 Pro microplate reader.

[2] = tested on: BiP expression in HepG2 cells; test: BiP qPCR in HepG2 cells; format: cell-based
Method: (§1) Cells were treated as described at 37° C., washed with Dulbecco's phosphate-buffered saline (Gibco), and then RNA was extracted using the RNeasy Mini Kit (Qiagen). qPCR reactions were performed on cDNA prepared from 500 ng of total cellular RNA using the QuantiTect Reverse Transcription Kit (Qiagen). The FastStart Universal SYBR Green Master Mix (Roche), cDNA, and appropriate human primers^4 or mouse primers (BiP; […] (SEQ ID NO: 5) and […] (SEQ ID NO: 6) purchased from Integrated DNA Technologies were used for amplifications (45 cycles of 1 min at 95° C., 10 s at 95° C., 30 sec at 60° C.) in an ABI 7900HT Fast Real Time PCR machine. Primer integrity was assessed by a thermal melt to confirm homogeneity and the absence of primer dimers. Transcripts were normalized to the housekeeping gene Rplp2 and all measurements were performed in triplicate. Data were analyzed using the RQ Manager and DataAssist 2.0 softwares (ABI).

^FTTTR^A25T = test: [35S] metabolic labeling, secretion of flag-tagged TTR^A25T from HepG2^ATF6 cells; format: cell-based; details: 15 h pretreatment, 4 h chase; for degradation of ^FTTTR^A25T / reduction of ^FTTTR^A25T secretion: 10 μM
Method: (§2) HepG2 cells or HEK293T cells plated on poly-D-lysine coated plates were metabolically labeled in DMEM-Cys/-Met (CellGro) supplemented with glutamine, penicillin/streptomycin, dialyzed fetal bovine serum, and EasyTag EXPRESS^35S Protein Labeling Mix (Perkin Elmer) for 30 min. Cells were washed twice with complete media and incubated in prewarmed DMEM for the indicated times. Media or lysates were harvested at the indicated times. Lysates were prepared in RIPA buffer with fresh protease inhibitor cocktail (Roche). FLAG tagged TTR variants or ALLC were immunopurified using M1 anti-FLAG agarose beads (Sigma-Aldrich) and washed three times with RIPA buffer. The immunoisolates were then eluted by boiling in Laemmli buffer and separated on SDS-PAGE. For total secreted media, 15 uL aliquots from media incubated for 4 hrs on pulsed cells were run on a SDS-PAGE. The gels were then dried, exposed to phosphorimager plates (GE Healthcare), and imaged with a Typhoon imager. Band intensities were quantified by densitometry in ImageQuant. Fraction secreted was calculated using the equation: fraction secreted=[extracellular [^35S]-LC signal at t=t/(extracellular [^35S]-LC signal at t=0+intracellular [^35S]-LC signal at t=0)]. Fraction remaining was calculated using the equation: [(extracellular [^35S]-LC signal at t=t+intracellular [^35S]-LC signal at t=t)/(extracellular [^35S]-LC signal at t=0+ intracellular [^35S]-LC signal at t=0)].

[3] = tested on: endogenous secretory proteome of HepG2^ATF6 cells; test: [35S] metabolic labeling, total secreted protein from HepG2^ATF6 cells; format: cell-based; details: 15 h pretreatment, 10 μM compound or 1 μM Tg, 4 h chase
Method: as §2

[4] = tested on: BiP expression in ALMC-2 cells; test: BiP qPCR in ALMC-2 cells; format: cell-based, human; details: 10 μM, 6 h
Method: as §1

BiP expression = test: BiP qPCR 24 h timecourse; format: cell-based
Method: as §1

| SMILES | % ERSE-FLuc activation [1] | HepG2 viability (HepG2 cells; 10 μM) | HepG2 viability (HepG2 cells; 100 μM) | expression of the ATF6-target gene BiP in HepG2 cells [2] | ^FTTTR^A25T secretion (in words) (^FTTTR^A25T; 10 μM compound or 1 μM Tg) | degradation of ^FTTTR^A25T (^FTTTR^A25T) | accumulation of [35S]-labeled protein in media (total secreted proteome) [3] | expression of the ATF6 target gene BiP in ALMC-2 cells [4] | time of maximal BiP induction (BiP expression) | reduction of ^FTTTR^A25T secretion (^FTTTR^A25T) |
| --- | --- | --- | --- | --- | --- | --- | --- | --- | --- | --- |
| Cc1ccc(O)c(N/C=C/C(=O)c2ccc(F)cc2)c1 [Compound 132] | 140.1 ± 17.4% | do not significantly influence | reduce | induced | did not significantly influence | did not significantly influence | did not influence | induced | 6 h |  |
| O=[N+]([O-])c1ccc(N/N=C/c2ccccc2O)cc1 [Compound 263] | 20.7 ± 2.3% | do not significantly influence | reduce | induced |  | increased degradation | did not influence | does not significantly induce | 6 h | 45% |
| Cc1ccc(O)c(NC(=O)CCc2ccccc2)c1 [Compound 147] | 63.2 ± 0.6% | do not significantly influence | reduce | induced |  | increased degradation | did not influence | induced | 6 h | 45% |
